Assay results taken from US6677381B1 (Jame Fine Chemicals, Inc., priority 2001, dated 2004).
Like-named read-outs stand apart in the source and are kept apart here.

Assays:
[1] = Solubility in water and organic solvents; assay type: physicochemical
Excerpt: The guaifenesin tannate of the invention is a light-tan colored powder which is soluble in water and alcohols, but is insoluble in methylene chloride, chloroform or toluene. […]

[2] = cited from earlier work; for solubility in alcohols: alcohols such as methanol, ethanol, isopropanol

| solubility in alcohols [1] | solubility in toluene [1] | solubility in water [1] | solubility in chloroform [1] | solubility in methylene chloride [1] | solubility in alcohols ([1]; alcohols, physical properties comparison) | solubility in chloroform ([1]; chloroform) | solubility in methylene chloride ([1]; methylene chloride) | solubility in toluene ([1]; toluene) | solubility in water ([1]; water, physical properties comparison) | Compound | solubility in alcohols [2] | solubility in water [2] | solubility in water ([2]; in words) |
| --- | --- | --- | --- | --- | --- | --- | --- | --- | --- | --- | --- | --- | --- |
| soluble | sparingly soluble | soluble |  |  |  |  |  |  |  | COc1ccccc1OCC(O)CO (centres unmarked) [guaifenesin, 3-(2-methoxyphenoxy)-1,2-propanediol] | readily soluble | about 5 wt. % |  |
| soluble | insoluble | soluble | insoluble | insoluble |  |  |  |  |  | O=C(OC[C@H]1O[C@@H](OC(=O)c2cc(O)c(O)c(OC(=O)c3cc(O)c(O)c(O)c3)c2)[C@H](OC(=O)c2cc(O)c(O)c(OC(=O)c3cc(O)c(O)c(O)c3)c2)[C@@H](OC(=O)c2cc(O)c(O)c(OC(=O)c3cc(O)c(O)c(O)c3)c2)[C@@H]1OC(=O)c1cc(O)c(O)c(OC(=O)c2cc(O)c(O)c(O)c2)c1)c1cc(O)c(O)c(OC(=O)c2cc(O)c(O)c(O)c2)c1 [tannic acid] | highly soluble |  | highly soluble |
|  |  |  |  |  | soluble | insoluble | insoluble | insoluble | soluble | guaifenesin tannate |  |  |  |
